Consider four compounds from US11071768B2, “Caspofungin compositions for inhalation” (TRILOGY THERAPEUTICS, INC., priority 2018, dated 2021).

The conditions of data set [1]: rat; cited from earlier work.
Data set [2] concerns Candida albicans Azole-R (20183.073). Put plainly: In vitro broth microdilution assay (CLSI). The data set is classed as cell-based. The protocol: (§1) The antifungal potency of the test article(s) was measured using the in vitro broth microdilution assay under assay conditions described by the Clinical and Laboratory Standards Institute. In this assay, the Minimum Inhibitory Concentration (MIC) is defined as the lowest concentration of an agent that causes a specified reduction in visible growth of the microorganism. The Minimal Effective Concentration (MEC) is defined as the lowest concentration of an agent that leads to the growth of small, rounded, compact hyphal forms as compared to the hyphal growth seen in the growth control well. In this study, MIC values are determined for the 9 Candida species and Cryptococcus neoformans. MEC values are determined for 3 filamentous fungi (2 Aspergillus fumigatus and Trichophyton rubrum). Test articles were prepared as the following:
(§2) The 3.2 mg/mL working stock solution was 2-fold diluted serially in 0.9% NaCl to prepare a total of eleven 50-fold stock solutions, concentrations ranging from 3.2 to 0.003 mg/mL. A 4 μL aliquot of each dilution was added to 196 μL of broth medium seeded with the organism suspension in wells of a 96 well plate (fungal cell count: 1×10^3 to 1×10^4 colony forming units per mL). The final volume was 200 μL in each well. Following incubation, the test plates were visually examined and wells were scored for growth or complete growth inhibition to define the MIC values. Microscopy examination was used to determine the MEC values. Each test substance was evaluated in duplicate and the results below are the duplicate test values. Vehicle-control and an active reference agent were used as blank and positive controls, respectively.
(In general: Dilution methods test growth across graded concentrations, often in twofold steps.)

Data set [3] has as its system Candida glabrata ATCC 36583. Put plainly: In vitro broth microdilution assay (CLSI). Format: cell-based. The protocol:
as §1, §2

The test system of data set [4] is Candida albicans ATCC44858. The experiment in a line: In vitro broth microdilution assay (CLSI). The data set is classed as cell-based. The protocol: as §1, §2
Data set [5] relates to Candida krusei ATCC 6258. Put plainly: In vitro broth microdilution assay (CLSI). The data set is classed as cell-based. As to the method: as §1, §2
The subject of data set [6] is Candida albicans Azole-R (20186.025). Put plainly: In vitro broth microdilution assay (CLSI). Format: cell-based. As to the method:
as §1, §2

Data set [7] deals with Trichophyton rubrum ATCC 10218. Put plainly: In vitro broth microdilution assay (CLSI). The data set is classed as cell-based. As to the method: as §1, §2
Data set [8] deals with Candida albicans ATCC90028. Put plainly: In vitro broth microdilution assay (CLSI). Format: cell-based. As to the method: as §1, §2
Data set [9] concerns Candida tropicalis ATCC 200956. The experiment in a line: In vitro broth microdilution assay (CLSI). The data set is classed as cell-based. The protocol:
as §1, §2

In data set [10] the test system is Candida parapsilosis ATCC 22019. The experiment in a line: In vitro broth microdilution assay (CLSI). The data set is classed as cell-based. As to the method: as §1, §2
The conditions of data set [11]: cited from earlier work.
The nature of data set [12]: Storage stability of lyophilized formulations by HPLC. As to conditions: for RT 26.1 (hydrolysis degradation product) / RT 37.3 (dimerization degradation product) / HPLC purity % (total caspofungin): lyophilized. Format: physicochemical. The protocol:
General: HPLC analysis was carried out on a Waters 2695 separations module equipped with an autosampler and a Waters 996 photodiode array detector. The HPLC method is described below:
Aliquots of 0.5 mL of each formulation listed in Table 3 were frozen on dry ice for 30 min and lyophilized for 40 h to obtain white cakes. A portion of each cake was reconstituted in 1 mL of deionized water and analyzed by HPLC. The vials were stoppered, crimp sealed and placed on stability at 5° C. and 40° C.
Each liquid formulation in Table 5 was equally split into two vials, frozen on dry ice for 1 h and lyophilized for 90 h to obtain white cakes. The vials were stoppered, crimp sealed and placed on stability at 5° C. and 40° C.
The liquid formulations to be lyophilized were prepared according to Table 6. Aliquots of 0.5 mL of each liquid formulation were placed in 3 mL glass vials, frozen on dry ice for 40 min. The vials were partially stoppered with lyo septa and lyophilized for 5 days. The vials were placed on stability at 5° C., ambient (dark) and −20° C.
Fourteen 0.5 mL aliquots of each liquid formulation prepared in part C were placed in 14 3-mL glass vials. The vials were frozen on dry ice for about 1 h and lyophilized for 5 days to obtain white cake. The vials were stoppered, crimp sealed and placed on stability at −20° C., 5° C., and ambient (dark) conditions.
One vial of the lyophilized cake was reconstituted in 1 mL of deionized water to obtain a 10 mg/mL caspofungin diacetate solution. An aliquot (55 μL) was removed and diluted with 1 mL of deionized water for HPLC analysis.
Tables 11, 12, 13, and 14 summarize the total caspofungin (%) as determined by HPLC present for each formulation prepared prior to storage and after several storage conditions. RT as below refers to HPLC retention time. The product with a retention time of 26.1 minutes is a hydrolysis degradation product while the product with a retention time of 37.3 minutes is a dimerization degradation product that is obtained from the dimerization of the hydrolysis products.

Data set [13] has as its system Cryptococcus neoformans ATCC 24067. The experiment in a line: In vitro broth microdilution assay (CLSI). The data set is classed as cell-based. The protocol:
as §1, §2

The subject of data set [14] is Aspergillus fumigatus ATCC204305. The experiment in a line: In vitro broth microdilution assay (CLSI). The data set is classed as cell-based. As to the method:
as §1, §2

The test system of data set [15] is Aspergillus fumigatus ATCC 13073. The experiment in a line: In vitro broth microdilution assay (CLSI). Format: cell-based. As to the method: as §1, §2
Data set [16] is described as follows: KF water content of lyophilized formulations. Format: physicochemical. As to conditions: lyo cake, T0; listed as API (lyo process). The source says: Tables 17 and 18 summarize the % water content measured of the prepared formulations.
[17] abbreviates: Candida albicans ATCC90028 + 50% human serum.

Values after ≈ are worked out from the molar mass of the structure shown. Values joined by “and” are separate entries in the source; they are usually repeats but may differ in a detail not shown here. Equal values may be shown once. Starred links: 1 amine or outer side, 2 acyl side, 3 side chain; linkers in the order of their positions; H or OH if unused. Positions of bridges follow the written chain, without caps; N, C: chain ends. Non-standard residues stand in square brackets, D forms with d. Residues, ends and D or L forms follow the SMILES beside them. *: point of attachment. hTyr(3S-OH,4S-OH,3'-OSO3H) = N[C@H](C(=O)O)[C@H](O)[C@@H](O)c1ccc(O)c(OS(=O)(=O)O)c1; pTerphenylCO(4''-OnC5H11) = CCCCCOc1ccc(-c2ccc(-c3ccc(C(=O)*)cc3)cc2)cc1; Orn(4R-OH,5R-OH) = O=C([C@H](C[C@@H](O)[C@@H](O)N[*:3])N[*:1])[*:2]; hTyr(3S-OH,4S-OH) = N[C@H](C(=O)O)[C@H](O)[C@@H](O)c1ccc(O)cc1; Pro(3S-OH,4S-Me) = C[C@H]1CN[C@H](C(=O)O)[C@H]1O; X1 = CCCCCOc1ccc(-c2cc(-c3ccc(C(=O)*)cc3)no2)cc1; Gln(3R-OH) = NC(=O)C[C@@H](O)[C@H](N)C(=O)O; Hyp = O=C(O)[C@@H]1C[C@@H](O)CN1 Bounds are passed on as bounds.

In the case of `CCCCCOc1ccc(-c2cc(-c3ccc(C(=O)N[C@H]4C[C@@H](O)[C@@H](O)NC(=O)[C@@H]5[C@@H](O)[C@@H](C)CN5C(=O)[C@H]([C@H](O)CC(N)=O)NC(=O)[C@H]([C@H](O)[C@@H](O)c5ccc(O)c(OS(=O)(=O)O)c5)NC(=O)[C@@H]5C[C@@H](O)CN5C(=O)[C@H]([C@@H](C)O)NC4=O)cc3)no2)cc1` [Micafungin, micafungin] (X1-[Orn(4R-OH,5R-OH)]T[Hyp][hTyr(3S-OH,4S-OH,3'-OSO3H)][Gln(3R-OH)][Pro(3S-OH,4S-Me)]; lactam 1-C), in [1], the “Exposure in the kidney relative to plasma” value is 3.4 fold, the “Exposure in the liver relative to plasma” value is given as 1.6 fold and the “Exposure in the lung relative to plasma” value is listed as 2.9 fold.
Regarding `C[C@@H]1[C@H](O)[C@@H](C)/C=C/C=C/C=C/C=C/C=C/C=C/C=C/[C@H](O[C@@H]2O[C@H](C)[C@@H](O)[C@H](N)[C@@H]2O)C[C@@H]2O[C@](O)(C[C@@H](O)C[C@@H](O)[C@H](O)CC[C@@H](O)C[C@@H](O)CC(=O)O[C@H]1C)C[C@H](O)[C@H]2C(=O)O` [amphotericin B], the minimum inhibitory concentration (MIC) (commonly the lowest concentration found to suppress growth) in data set [2] came out at 0.125 µg/mL (≈ 0.135 µM); in data set [3], 0.125 µg/mL (≈ 0.135 µM); in data set [4], 0.125 µg/mL (≈ 0.135 µM); in data set [5], 0.25 µg/mL (≈ 0.271 µM); in [6], 0.25 µg/mL (≈ 0.271 µM); in data set [7], 0.125 µg/mL (≈ 0.135 µM). The MIC in data set [8] (Candida albicans ATCC90028) amounted to 0.125 µg/mL (≈ 0.135 µM); in data set [8] (setting [17]), 0.25 µg/mL; in data set [9], 1 µg/mL (≈ 1.08 µM); in data set [10], 0.25 µg/mL (≈ 0.271 µM).
For the compound `CCCCCOc1ccc(-c2ccc(-c3ccc(C(=O)N[C@H]4C[C@@H](O)[C@@H](O)NC(=O)[C@@H]5[C@@H](O)[C@@H](C)CN5C(=O)[C@H]([C@@H](C)O)NC(=O)[C@H]([C@H](O)[C@@H](O)c5ccc(O)cc5)NC(=O)[C@@H]5C[C@@H](O)CN5C(=O)[C@H]([C@@H](C)O)NC4=O)cc3)cc2)cc1` [anidulafungin] ({pTerphenylCO(4''-OnC5H11)}-[Orn(4R-OH,5R-OH)]T[Hyp][hTyr(3S-OH,4S-OH)]T[Pro(3S-OH,4S-Me)]; lactam 1-C), the “Time that levels stay above MICs for common pathogens” value in data set [11] (rat tissues) is 72 h. In data set [11] (rat), the “Exposure in tissues (liver, lung, spleen, kidney) relative to plasma” value is given as 9-12 fold and the “Time to peak concentrations in tissues” value is not above 30 min.
Consider caspofungin diacetate, for which, in data set [12] (Pure API control, as printed in the head), the “HPLC purity of control” value amounted to 99.72%). Also, the results for the “RT 26.1 (hydrolysis degradation product)” value in [12] (40° C. 1 week), in [12] (40° C. 3 week) and in data set [12] (T0) were 2.88%, 6.09% and 2.17%, respectively. The “RT 37.3 (dimerization degradation product)” value in data set [12] (40° C. 1 week) worked out at 9.26%; in data set [12] (40° C. 3 week), 4.38%; in data set [12] (T0), 1.57%. Besides, the “HPLC purity % (total caspofungin)” value was 82.32% in [12] (40° C. 1 week, listed as API (lyo process)); 88.48% in data set [12] (40° C. 1 week, listed as Pure API); 75.71% in data set [12] (40° C. 3 week); 95.82% and 95.42% in data set [12] (T0, listed as API (lyo process)). The MIC in data set [2] came to 0.25 µg/mL; in data set [3], 0.25 µg/mL; in [4], 0.25 µg/mL; in [5], 1 µg/mL; in data set [6] it was 0.25 µg/mL; in data set [8] (Candida albicans ATCC90028) it was 0.25 µg/mL. Also, the MIC in [8] (setting [17]) turned out to be 0.125 µg/mL; in [13] it was 16 µg/mL; in data set [9], 0.25 µg/mL; in data set [10], 1 µg/mL. Further, the MEC in data set [7] was 0.125 µg/mL; in data set [14], 0.125 µg/mL; in [15], 0.0625 µg/mL. The “KF water content %” value in data set [16] was 6.16% and 3.94%.
